Test [1] relates to hippocampus of mice subjected to chronic restraint stress. As to the kind of experiment: Neural progenitor amplification (BrdU-positive cells) in mice under chronic restraint stress. The class given is in vivo, mouse. The note with it: for neuron progenitor amplification (BrdU incorporation): vs allopurinol, vehicle and unrestrained controls, n=3 mice. The procedure:
(§1) Murine subjects underwent CRS on day zero, with febuxostat (1 mg kg^−1 d^−1) allopurinol (20 mg kg^−1 d^−1), Rhy37 (10 mg kg^−1 d^−1), or vehicle alone, administered daily intragastrically beginning on day 15. BrdU was administered on day 36, and brain tissues harvested on day 37 or 50. Control subjects remained free throughout the trial period. Neural progenitor amplification was measured by quantifying the number of BrdU-positive cells in hippocampal tissue sections. […] Results were compared using a one-way ANOVA test.

The test system of test [2] is mouse hippocampus. As to the kind of experiment: Neuronal differentiation (DCX with BrdU) after intracerebroventricular osmotic pump infusion. The class given is in vivo. The conditions noted are these: 1 mM intracerebroventricular 7 days, tissue harvested day 14, compared to allopurinol or vehicle alone. The procedure: To assess the effects of febuxostat on adult neurogenesis, febuxostat or allopurinol (1 mM) were delivered to mouse brains for 7 days as described above. BrdU was administered in eight injections over days 2-3. The osmotic pump was removed on day 7 and brain tissues were harvested on day 14. The hippocampal slices were subjected to immunohistochemical analysis for the detection of BrdU and doublecortin (DCx) (newly formed neuron marker) stained cells in the subgranular zone of the hippocampus.

The subject of test [3] is mouse hippocampus. As to the kind of experiment: Neural progenitor amplification (BrdU incorporation) after intracerebroventricular osmotic pump infusion. Format: in vivo. The note with it: 1 mM intracerebroventricular, 0.5 μl per hour, 7 days, compared to allopurinol or vehicle alone. The procedure: To assess the effects of febuxostat on neural progenitor amplification, febuxostat or allopurinol (1 mM) were intracerebroventricularly delivered via osmotic pump infusion (0.5 μl per hour) to mouse brains for 7 days. Control subjects received vehicle alone. BrdU was administered in four injections on day 6, and brain tissues were harvested on day 7. Neural progenitor amplification was measured by quantifying the number of BrdU-positive cells in the subgranular zone (SGZ) of hippocampal tissue sections.

Test [4] relates to hippocampus of mice subjected to chronic restraint stress. The test is described as follows: Neuronal differentiation (DCX+/BrdU-positive cells) in mice under chronic restraint stress. The class given is in vivo, mouse. On the procedure: as §1
Where [5] appears, read: CRS mice, daily intragastric from day 15, harvest day 37 or 50, compared to allopurinol or vehicle alone.

“Also recorded” adds a separate entry of the source.

Consider `Cc1nc(-c2ccc(OCC(C)C)c(C#N)c2)sc1C(=O)O` [febuxostat, 2-(3-cyano-4-isobutoxyphenyl)-4-methyl-1,3-thiazole-5-carboxylic acid], for which the “neuron progenitor amplification (BrdU incorporation)” value in test [1] (37 days of chronic restraint stress) and in test [1] (50 days of chronic restraint stress) was “promotes neuron progenitor amplification” each time. In addition, the “neural progenitor amplification (BrdU-positive cells)” value in test [1] (setting [5]) was “increased levels”. In test [2], the “neural differentiation (BrdU and doublecortin stained cells in the subgranular zone)” value is given as “neuronal differentiation; also recorded: increased levels”. Besides, the “neural progenitor amplification (BrdU-positive cells in the subgranular zone)” value in test [3] is recorded as “promotes neural progenitor amplification; also recorded: increased levels”. The “neuronal differentiation (DCX expression with BrdU incorporation)” value in test [4] (50 days of chronic restraint stress, vs allopurinol, vehicle and unrestrained controls) is given as “promotes neuronal differentiation”. In addition, in test [4] (setting [5]), the “neural differentiation (DCX+/BrdU-positive cells)” value is “increased levels”.

Values taken from patent US11607403B2, “Methods and compositions for promoting adult neurogenesis” (Morningside Ventures Limited, priority 2015, dated 2023).
